Measured values: patent US4954347A (priority 1988, dated 1990)
“Also recorded” adds a separate entry of the source. Counter-ions that a name gives are not always drawn. Like-named read-outs stand apart in the source and are kept apart here.

Key:
[1] = system: supraventricular and ventricular arrhythmias; details: in vivo; hydrochloride; cited from earlier work
calcium = details: cited from earlier work
[2] = system: fast inward sodium channels; details: hydrochloride; cited from earlier work
beta-adrenergic = details: cited from earlier work
[3] = one patient; quinidine concomitantly with propafenone
[4] = system: electrically induced arrhythmias, ventricular tachycardias, circus-movement flutter; details: experimental animals; cited from earlier work
[5] = human, in vivo; cited from earlier work

## CCCNCC(O)COc1ccccc1C(=O)CCc1ccccc1 (centres unmarked) [propafenone, 2'-[3-(prophylamino)-2-(hydroxy)-(propoxy)-3-phenylpropiophenone hydrochloride]
[1]
  suppression of supraventricular and ventricular arrhythmias: effective against recurrent supraventricular and ventricular arrhythmias; also recorded: effective in suppressing both supraventricular and ventricular arrhythmias
calcium
  calcium antagonist activity: weak calcium antagonist activity
[2]
  blockade of fast sodium channels: blocks fast inward sodium channels; also recorded: blockade of the fast sodium channel
beta-adrenergic; hydrochloride
  beta-blocking activity: only a weak beta-blocker

## C=C[C@H]1C[N@@]2CC[C@H]1C[C@@H]2[C@@H](O)c1ccnc2ccc(OC)cc12 [quinidine]
[3]
  effect on the blood levels of propafenone: very pronounced effect
[4]
  "late" ventricular tachycardias following coronary artery occlusion: prevent or terminate
  circus-movement flutter: terminate or prevent
  threshold for electrically induced arrhythmias: raise the threshold

## COCCc1ccc(OCC(O)CNC(C)C)cc1 (centres unmarked) [metoprolol]
[5]
  half-life: 3 to 7 h
  systemic bioavailability: 40-50%
beta-adrenergic
  beta-blocking activity: primarily a beta-adrenergic blocking agent
